# From ChEMBL document CHEMBL1201862, “PubChem BioAssay data set” (2004)
# Calls of active or inactive are those of the source.
# Key:
# Estrogen receptor beta [1] = molecular target: T1, Estrogen receptor beta (Homo sapiens, UniProt Q92731);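 further: recombinant ER-beta bound to coactivator SRC1 peptide in presence of estradiol agonist; inhibitors block coactivator peptide binding and lower the FRET signal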
# Estrogen receptor beta [2] = molecular target: T1, Estrogen receptor beta; assay: blockers of SRC-3 recruitment to ERβ – biochemical, ELISA, streptavidin-HRP readout, orthogonal assay, confirmation (AID 1060)
# Major prion protein = Major prion protein (Homo sapiens, UniProt P04156); type: functional, cell-based
# cells [3] = assay: cells
# cells [4] = type: functional, cell-based
# cells [5] = type: functional, cell-based; remark: listed apart in the source
# [6] = viability loss in HEK293 kidney cells – cell-based, cherry-picks, set 5, cytotoxicity control, dose response (AID 1053117); type: functional
# [7] = molecular target: T2, DNA repair protein RAD52 homolog (Homo sapiens, UniProt P43351); type: functional, biochemical
# T2 sequence (P43351 whole entry): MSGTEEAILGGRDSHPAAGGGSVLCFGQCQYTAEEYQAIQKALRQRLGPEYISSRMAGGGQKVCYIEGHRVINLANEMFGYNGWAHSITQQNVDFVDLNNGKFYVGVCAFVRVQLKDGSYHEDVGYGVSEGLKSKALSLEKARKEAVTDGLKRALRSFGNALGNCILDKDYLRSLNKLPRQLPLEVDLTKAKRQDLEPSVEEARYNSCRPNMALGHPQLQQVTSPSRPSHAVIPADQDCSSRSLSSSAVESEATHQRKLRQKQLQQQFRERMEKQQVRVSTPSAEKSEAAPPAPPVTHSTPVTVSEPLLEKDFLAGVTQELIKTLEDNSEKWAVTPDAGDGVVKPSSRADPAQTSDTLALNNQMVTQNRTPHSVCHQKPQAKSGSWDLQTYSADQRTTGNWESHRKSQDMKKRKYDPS
# [8] = HGIII-sPLA2 enzyme inhibition potency – biochemical, QFRET, IC50, dose response (AID 743457);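 further: green fluorescence rise as the enzyme cleaves BODIPY PC-A2 in liposomes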
# [9] = T. cruzi growth inhibition in host cells, dose response, cell-based, plate reader, dry powder, set 2 (AID 652275); type: functional
# [10] = molecular target: T3, Sentrin-specific protease 8 (Homo sapiens, UniProt Q96LD8); assay: inhibition of human SENP8 cleavage activity – biochemical, luminescence, SAR follow-up (AID 504501); type: functional
# T3 sequence (Q96LD8 whole entry): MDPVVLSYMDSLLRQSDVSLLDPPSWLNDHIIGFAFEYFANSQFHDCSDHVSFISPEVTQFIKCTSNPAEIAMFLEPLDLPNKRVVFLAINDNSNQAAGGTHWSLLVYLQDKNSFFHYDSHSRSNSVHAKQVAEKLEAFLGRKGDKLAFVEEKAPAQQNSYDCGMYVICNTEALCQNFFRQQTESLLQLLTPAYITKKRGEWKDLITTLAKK
# Caspase-3 = molecular target: T4, Caspase-3 (Homo sapiens, UniProt P42574); assay: SAR Analysis of small molecule inhibitors of Sentrin-specific proteases (SENPs) using a Caspase-3 Selectivity assay. [Related pubchem assays (depositor defined):AID2540, AID2599, AID434973, AID489001]; type: functional
# T4 sequence (P42574 whole entry): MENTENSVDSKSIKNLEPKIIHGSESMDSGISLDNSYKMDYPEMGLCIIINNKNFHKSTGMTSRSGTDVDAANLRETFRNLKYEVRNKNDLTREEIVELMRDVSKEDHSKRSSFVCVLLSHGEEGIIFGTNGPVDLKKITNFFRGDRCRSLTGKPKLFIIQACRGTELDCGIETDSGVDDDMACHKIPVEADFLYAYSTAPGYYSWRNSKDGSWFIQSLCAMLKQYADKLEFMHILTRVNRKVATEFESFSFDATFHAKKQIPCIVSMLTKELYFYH
# [11] = molecular target: T5, Sentrin-specific protease 6 (Homo sapiens, UniProt Q9GZR1); assay: SAR Analysis of small molecule inhibitors of Sentrin-specific protease 6 (SENP6) using a Luminescent assay. [Related pubchem assays (depositor defined):AID2582, AID2599]; type: functional
# T5 sequence (Q9GZR1 whole entry): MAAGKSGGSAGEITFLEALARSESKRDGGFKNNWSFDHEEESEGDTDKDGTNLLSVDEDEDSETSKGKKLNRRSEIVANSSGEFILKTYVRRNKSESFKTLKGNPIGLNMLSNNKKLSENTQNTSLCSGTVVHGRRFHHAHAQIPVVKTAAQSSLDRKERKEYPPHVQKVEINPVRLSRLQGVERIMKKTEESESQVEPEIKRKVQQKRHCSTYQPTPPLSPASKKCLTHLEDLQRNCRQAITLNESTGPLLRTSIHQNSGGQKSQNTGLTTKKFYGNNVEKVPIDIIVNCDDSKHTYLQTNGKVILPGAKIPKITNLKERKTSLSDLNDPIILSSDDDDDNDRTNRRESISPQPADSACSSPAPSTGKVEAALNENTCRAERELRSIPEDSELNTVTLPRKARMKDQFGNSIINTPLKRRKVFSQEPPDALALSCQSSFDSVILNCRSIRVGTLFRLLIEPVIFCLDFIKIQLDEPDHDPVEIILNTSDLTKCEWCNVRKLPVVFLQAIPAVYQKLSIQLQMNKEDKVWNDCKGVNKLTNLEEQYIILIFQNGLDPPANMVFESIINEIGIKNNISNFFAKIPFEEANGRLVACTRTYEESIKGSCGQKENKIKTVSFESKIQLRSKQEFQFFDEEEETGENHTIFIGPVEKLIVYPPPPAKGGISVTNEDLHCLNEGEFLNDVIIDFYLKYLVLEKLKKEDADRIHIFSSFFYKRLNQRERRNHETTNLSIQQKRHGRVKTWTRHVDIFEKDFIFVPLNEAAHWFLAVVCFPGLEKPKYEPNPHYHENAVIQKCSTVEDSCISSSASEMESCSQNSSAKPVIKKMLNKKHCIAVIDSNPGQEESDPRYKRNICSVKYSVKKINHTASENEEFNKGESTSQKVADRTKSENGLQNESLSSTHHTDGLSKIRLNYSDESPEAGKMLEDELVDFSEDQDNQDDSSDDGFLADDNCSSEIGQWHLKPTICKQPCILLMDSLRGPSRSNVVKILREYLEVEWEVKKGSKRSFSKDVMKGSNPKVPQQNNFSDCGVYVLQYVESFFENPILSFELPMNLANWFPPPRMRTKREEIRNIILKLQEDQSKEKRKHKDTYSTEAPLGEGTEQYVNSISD
# Beta-lactamase [12] = molecular target: Beta-lactamase (Salmonella choleraesuis (strain SC-B67), UniProt Q5J463); assay: Epi-absorbance-based counterscreen for selective VIM-2 inhibitors: dose response biochemical high throughput screening assay to identify inhibitors of TEM-1 serine-beta-lactamase.
# Beta-lactamase [13] = molecular target: T6, Beta-lactamase (Pseudomonas aeruginosa, UniProt Q79MP6); assay: inhibition of IMP-1 beta-lactamase activity – biochemical, epi-absorbance, selectivity assay for VIM-2 inhibitor project, dose response (AID 1920)
# [14] = molecular target: Peroxisome proliferator-activated receptor gamma/Nuclear receptor coactivator 1 (Homo sapiens, UniProt P37231); assay: (§1) TR-FRET dose response biochemical High Throughput Screening assay for agonists of the steroid receptor coactivator 1 (SRC-1) recruitment by the peroxisome proliferator-activated receptor gamma (PPAR gamma): non-selective agonists. [Related pubchem assays (depositor defined):AID1300, AID1808, AID504735, AID631]; type: protein assay
# [15] = molecular target: Peroxisome proliferator-activated receptor gamma/Nuclear receptor coactivator 3 (Homo sapiens, UniProt P37231); assay: as §1, with “3 (SRC-3)” for “1 (SRC-1)”, “assays: 1301 (Confirmation screen.), 1048 (Primary screen.)]” for “assays (depositor defined):AID1300, AID1808, AID504735, AID631]”; type: functional
# Beta-lactamase [16] = molecular target: T6, Beta-lactamase; assay: […] counterscreen for selective VIM-2 inhibitors: dose response biochemical high throughput screening assay to identify inhibitors of IMP-1 metallo-beta-lactamase.
# [17] = molecular target: Peroxisome proliferator-activated receptor gamma/Nuclear receptor coactivator 2 (Homo sapiens, UniProt P37231); assay: TR-FRET dose response biochemical High Throughput Screening assay for agonists of the steroid receptor coactivator 2 (SRC-2) recruitment by the peroxisome proliferator-activated receptor gamma (PPAR gamma): non-selective agonists. [Related pubchem assays: 1297, 1032 ]; type: functional
# [18] = molecular target: FAD-linked sulfhydryl oxidase ALR (Homo sapiens, UniProt P55789); assay: ALR-catalysed DTT oxidation blockers – biochemical, H2O2 detection, luminescence, cherry-pick, dose response (AID 493248)
# Protein skinhead-1 = molecular target: T7, Protein skinhead-1 (Caenorhabditis elegans, UniProt P34707); type: functional
# T7 sequence (P34707 whole entry): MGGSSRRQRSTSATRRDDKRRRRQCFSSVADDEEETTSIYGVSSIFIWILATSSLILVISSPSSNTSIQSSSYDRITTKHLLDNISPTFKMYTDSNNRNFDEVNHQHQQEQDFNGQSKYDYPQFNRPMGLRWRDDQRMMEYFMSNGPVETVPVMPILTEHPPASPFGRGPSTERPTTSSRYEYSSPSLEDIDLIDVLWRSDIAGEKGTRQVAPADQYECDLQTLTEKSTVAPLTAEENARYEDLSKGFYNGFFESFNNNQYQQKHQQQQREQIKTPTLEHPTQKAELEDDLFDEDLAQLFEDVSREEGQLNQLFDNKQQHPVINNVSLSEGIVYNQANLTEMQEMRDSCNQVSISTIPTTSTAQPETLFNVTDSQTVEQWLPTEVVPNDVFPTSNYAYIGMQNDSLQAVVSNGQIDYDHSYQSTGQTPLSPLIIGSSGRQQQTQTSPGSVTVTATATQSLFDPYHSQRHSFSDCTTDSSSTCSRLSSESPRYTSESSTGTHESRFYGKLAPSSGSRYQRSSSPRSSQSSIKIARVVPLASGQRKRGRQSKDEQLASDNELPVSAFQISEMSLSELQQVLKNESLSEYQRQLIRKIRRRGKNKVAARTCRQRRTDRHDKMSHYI
# Paired box protein Pax-8 = Paired box protein Pax-8 (Homo sapiens, UniProt Q06710); assay: PAX8 transcriptional activity inhibition in RMG-I – RMG-I cells, luciferase, cherry-pick, dose response (AID 687027); type: functional, cell-based;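 further: luciferase reporter driven by Pax8 target thyroperoxidase promoter measured by SteadyGlo luminescence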
# [19] = general cell-killing toxicity readout – plate reader, dry powder samples, cytotoxicity control for PAX8 inhibitor project, dose response (AID 743021); type: functional, cell-based
# [20] = P. falciparum Dd2 growth inhibitors, dose response, SYBR Green, cherry-picked samples (AID 1159567); type: functional, cell-based
# [21] = toxicity to human hepatoma HepG2 cells – cell-based, cherry-picked samples, cytotoxicity control, dose response (AID 1159577); type: functional
# [22] = OVCAR-3 cell viability loss – plate reader, dry powder samples, PAX8 inhibitor project, dose response (AID 743044); type: functional, cell-based
# [23] = IGROV1 cell killing – plate reader, dry powder samples, PAX8 inhibitor project, dose response (AID 743043); type: functional, cell-based; details: IGROV-1
# [24] = activation of miR-122 Renilla sensor silencing – cell-based, Huh7 psiCHECK-miR122, Renilla luciferase, cherry-picked, dose response (AID 651956); type: functional;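 further: huh7 hepatoma cells stably carrying a psiCHECK-2 miR-122 sensor plasmid; renilla luciferase signal reporting endogenous miR-122 activity after 48 h compound exposure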
# [25] = general mammalian cell viability loss – inhibitor set, cherry-pick, set 2, cytotoxicity control for miR-122 modulator project, dose response (AID 720697); type: functional, cell-based
# [26] = molecular target: Protein-tyrosine kinase 2-beta (Homo sapiens, UniProt Q14289);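 further: potency of inhibitors of PYK2 kinase phosphorylation of poly-GT substrate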
smiles,measurement,setting,value
CCC(Sc1ncnc2sc(C)c(C)c12)C(=O)OC (stereo unspecified),IC50,Estrogen receptor beta [1],14.1 µM (active)
same,IC50,Estrogen receptor beta [2],< 23 nM (not active)
same,IC50,Major prion protein,2.46 µM (active)
same,IC50,cells [3],> 138 µM (inactive)
O=C(NCCS(=O)(=O)NCCc1ccccc1)c1ccc2c(c1)OCO2,IC50,cells [4],> 29.9 µM (inactive)
same,EC50,cells [5],> 29.9 µM (inactive)
CO[C@H]1CN(C)C(=O)c2cc(NC(=O)Nc3ccc(Cl)c(Cl)c3)ccc2OC[C@@H](C)NC[C@H]1C,AC50,[6],> 52 µM (inactive)
N=C(N)/N=N/C(=N\Nc1ccccc1)c1ccc(Cl)cc1,AC50,[7],12.7 µM (active)
same,IC50,[8],> 122 µM (inactive)
CN(C)C(=O)c1cccc(-c2ccc([C@H]3[C@H](CO)N4CCCCN(C(=O)C5CCCC5)C[C@@H]34)cc2)c1,AC50,[9],65 nM (active)
O=C(Nc1ccccc1F)c1ccc(OCc2ccccc2)cc1,IC50,[10],> 99 µM (inactive)
same,IC50,Caspase-3,10.3 µM (active)
same,IC50,[11],> 99 µM (inactive)
same,IC50,cells [4],> 29.9 µM (inactive)
same,EC50,cells [5],> 29.9 µM (inactive)
Cc1c(Cl)c(-c2nnc(S)n2-c2ccc(F)cc2)nn1C,IC50,Beta-lactamase [12],> 59.6 µM (inactive)
same,IC50,Beta-lactamase [13],> 59.6 µM (inactive)
same,EC50,[14],> 79.4 µM (inactive)
same,EC50,[15],> 79.4 µM (not active)
same,IC50,Beta-lactamase [16],> 59.6 µM (inactive)
same,EC50,[17],> 79.4 µM (not active)
same,AC50,[18],5.12 µM (active)
same,IC50,Protein skinhead-1,> 100 µM (inactive)
COc1ccc(-c2ccc([C@@H]3[C@@H](CO)N4CCCCN(C(=O)Cc5ccccc5)C[C@H]34)cc2)cc1,AC50,Paired box protein Pax-8,41.5 µM (active)
same,AC50,[19],40.8 µM (active)
same,AC50,[20],6.32 µM (active)
same,AC50,[21],> 39 µM (inactive)
O=C1CN(S(=O)(=O)Cc2ccccc2)C[C@@H]2[C@H](c3ccc(C#Cc4ccc(F)cc4)cc3)[C@H](CO)N12,AC50,Paired box protein Pax-8,9.68 µM (active)
same,AC50,[22],31 µM (active)
same,AC50,[23],52.7 µM (active)
CN(C)C(=O)c1ccc(NC(=O)c2cc(-n3cnnc3)ccc2Cl)cc1,AC50,[24],1.1 µM (active)
same,AC50,[25],1.88 µM (active)
COC(=O)CSc1nc(C(C)C)nc2ccccc12,IC50,[26],> 69.5 µM (not active)
same,IC50,Major prion protein,0.91 µM (active)
same,IC50,cells [3],> 138 µM (inactive)
NC(=O)c1csc(-c2ccncc2)n1,AC50,[25],8.85 µM (active)
